test system: MDA-MB-468 cell line with high TROP-2 expression; test: Inhibition test of Exatecan derivatives (payload) on in vitro proliferation of tumor cells; type: cell-based, human; conditions: Homo sapiens, 72 h; MDA-MB-468 cells, 3 days, CellTiter-Glo; read-out: IC50 of MDA-MB-468 cell proliferation inhibition in vitro
Description: The cell line used in this experiment is the MDA-MB-468 cell line with high TROP-2 expression (Nanjing Cobioer Biosciences Co., Ltd., catalog number: CBP60387). Prepare cell suspension with fresh cell culture medium containing 10% FBS at a density of 3×10^3 cells/mL, add 90 μL per well into an all-white 96-well cell culture plate (Beyotime, item number: FCP968-80pcs), 5% carbon dioxide 37° C. for 24 h. Compounds 1-36 were formulated with DMSO to 1 mM, respectively. Add 20 μL of different samples to be tested in the first column of the 96-well U-bottom dispensing plate, and the sample concentration is 1000 uM; add 20 μL DMSO to each well of the second to tenth columns. Take 5 μL of the sample from the first column to 20 μL DMSO in the second column, mix well, take 5 μL to the third column, and so on to the ninth column. Take 5 μL of the medicine from each well of the dispensing plate to 95 μL of DMEM medium, and mix well. Add 10 μL of prepared samples to be tested at different concentrations to the culture plate, and duplicate wells for each sample. 5% carbon dioxide and cultured at 37° C. for 3 days. Add 50 μL of CTG (CellTiter-Glo® Luminescent Cell Viability Assay, Promega, item number: G7573) to each well, mix on a shaker at room temperature for 30 minutes, incubate for 10 minutes, and read chemiluminescence on a microplate reader (TECAN, Spark). Graphpad Prism 8 software used for data analysis.

SMILES	IC50 [nM]
CC[C@@]1(O)C(=O)OCc2c1cc1n(c2=O)Cc2c-1nc1cc(F)c(C)c3c1c2[C@@H](NC(=O)Cc1cccc(N)c1)CC3 [Compound 23]	2.64

same assay, conditions: Homo sapiens, MDA-MB-468, 72 h, read-out: IC50 of MDA-MB-468 cell proliferation inhibition in vitro

SMILES	IC50 [nM]
CC[C@@]1(O)C(=O)OCc2c1cc1n(c2=O)Cc2c-1nc1cc(F)c(C)c3c1c2[C@@H](NC(=O)C1CNC1)CC3 [Compound 1]	135
CC[C@@]1(O)C(=O)OCc2c1cc1n(c2=O)Cc2c-1nc1cc(F)c(C)c3c1c2[C@@H](NC(=O)Cc1ccc(N)cc1)CC3 [Compound 2]	3.38
CC[C@@]1(O)C(=O)OCc2c1cc1n(c2=O)Cc2c-1nc1cc(F)c(C)c3c1c2[C@@H](NC(=O)Cc1ccc(NC(=O)CO)cc1)CC3 [Compound 3]	43.6
CC[C@@]1(O)C(=O)OCc2c1cc1n(c2=O)Cc2c-1nc1cc(F)c(C)c3c1c2[C@@H](NC(=O)[C@@H]1CCCN1)CC3 [Compound 4]	4.32
CC[C@@]1(O)C(=O)OCc2c1cc1n(c2=O)Cc2c-1nc1cc(F)c(C)c3c1c2[C@@H](NC(=O)[C@@H]1CCCN1C(=O)CO)CC3 [Compound 5]	19.3
CC[C@@]1(O)C(=O)OCc2c1cc1n(c2=O)Cc2c-1nc1cc(F)c(C)c3c1c2[C@@H](NC(=O)c1ccc(O)c(Cl)c1)CC3 [Compound 6]	9.81
CC[C@@]1(O)C(=O)OCc2c1cc1n(c2=O)Cc2c-1nc1cc(F)c(C)c3c1c2[C@@H](NC(=O)c1ccc(Cl)c(O)c1)CC3 [Compound 7]	9.45
CC[C@@]1(O)C(=O)OCc2c1cc1n(c2=O)Cc2c-1nc1cc(F)c(C)c3c1c2[C@@H](NC(=O)NCC(F)(F)F)CC3 [Compound 8]	2.72
CC[C@@]1(O)C(=O)OCc2c1cc1n(c2=O)Cc2c-1nc1cc(F)c(C)c3c1c2[C@@H](NC(=O)N[C@H]1CCCNC1)CC3 [Compound 12]	56.2
CC[C@@]1(O)C(=O)OCc2c1cc1n(c2=O)Cc2c-1nc1cc(F)c(C)c3c1c2[C@@H](NC(=O)N[C@H]1CCNC1)CC3 [Compound 13]	76.5
CC[C@@]1(O)C(=O)OCc2c1cc1n(c2=O)Cc2c-1nc1cc(F)c(C)c3c1c2[C@@H](NC(=O)N[C@@H]1CCNC1)CC3 [Compound 14]	48
CC[C@@]1(O)C(=O)OCc2c1cc1n(c2=O)Cc2c-1nc1cc(F)c(C)c3c1c2[C@@H](NC(=O)Cc1ccc(N)cc1OC)CC3 [Compound 19]	7.52
CC[C@@]1(O)C(=O)OCc2c1cc1n(c2=O)Cc2c-1nc1cc(F)c(C)c3c1c2[C@@H](NC(=O)Cc1ccc(N)cc1F)CC3 [Compound 21]	3.05
CC[C@@]1(O)C(=O)OCc2c1cc1n(c2=O)Cc2c-1nc1cc(F)c(C)c3c1c2[C@@H](NC(=O)Cc1ccc(O)cc1)CC3 [Compound 22]	2.6
CC[C@@]1(O)C(=O)OCc2c1cc1n(c2=O)Cc2c-1nc1cc(F)c(C)c3c1c2[C@@H](NC(=O)Cc1ccccc1N)CC3 [Compound 24]	1.65
CC[C@@]1(O)C(=O)OCc2c1cc1n(c2=O)Cc2c-1nc1cc(F)c(C)c3c1c2[C@@H](NC(=O)CCc1ccc(N)cc1)CC3 [Compound 25]	8.63
CC[C@@]1(O)C(=O)OCc2c1cc1n(c2=O)Cc2c-1nc1cc(F)c(C)c3c1c2[C@@H](NC(=O)CCCc1ccc(N)cc1)CC3 [Compound 26]	3.28
CC[C@@]1(O)C(=O)OCc2c1cc1n(c2=O)Cc2c-1nc1cc(F)c(C)c3c1c2[C@@H](NC(=O)C1CCNCC1)CC3 [Compound 31]	136

same assay, conditions: MDA-MB-468 cells, 3 days, CellTiter-Glo; read-out: IC50 of MDA-MB-468 cell proliferation inhibition in vitro

SMILES	IC50 [nM]
CC[C@@]1(O)C(=O)OCc2c1cc1n(c2=O)Cc2c-1nc1cc(F)c(C)c3c1c2[C@@H](NC(=O)C1CCCN1)CC3 (some centres unmarked) [Compound 36]	6.34

From patent publication US20250161473A1, “EXATECAN DERIVATIVE-ANTIBODY CONJUGATE AND MEDICAL USE THEREOF” (Gan & Lee Pharmaceuticals Co., Ltd., priority 2022, published 2025)
